Several values for one entry are separate records, joined by “and”; a condition that tells them apart may be missing. Identical values can stand only once. Like-named read-outs stand apart in the source and are kept apart here.
What was measured:
purified PARP protein = purified PARP protein (Homo sapiens, UniProt P09874); assay: PARP enzyme inhibition assay; assay type: biochemical
A549 cells = assay: Cytotoxicity potentiation assay; assay type: cell-based; settings: test compound 0.4 μM, ratio of IC50 of topotecan alone to IC50 of topotecan with test compound
Method: A549 cells (ATCC, Rockville, Md.) were seeded into 96-well cell culture plates (Falcon brand, Fisher Scientific, Pittsburgh, Pa.) 16 to 24 hours before experimental manipulation. Cells were then treated with a test compound (or a combination of test compounds where indicated) each at a concentration of 0.4 μM for either 3 days or 5 days. At the end of treatments, relative cell number was determined either by MTT assay or SRB assay. For the MTT assay, 0.2 μg/μl of MTT (3-(4,5-dimethylthiazol-2-yl)-2,5-diphenyltetrazolium bromide) (Sigma Chemical Co., St. Louis, Mo.) was added to each well of a plate, and the plate was incubated in a cell-culture incubator for 4 hours. Metabolized MTT in each well was solubilized in 150 μl of DMSO (Sigma Chemical Co.) with shaking and quantified with a Wallac 1420 Victor plate reader (EG&G Wallac, Gaithersburg, Md.) at 540 nm. For the SRB assay, cells were fixed with 10% trichloroacetic acid (Sigma Chemical Co) for an hour at 4° C. After extensively washing, fixed cells were stained for 30 minutes with 0.4% sulforhodamine B (SRB, Sigma Chemical Co.) in 1% acetic acid (Sigma Chemical Co). Unbound SRB was washed away with 1% acetic acid. Then the cultures were air-dried, and dye was solubilized with 10 mM unbuffered Tris base (Sigma Chemical Co) with shaking. The bound dye was measured photometrically with the Wallac Victor plate reader at 515 nm. The ratio of the OD (optical density) value of a compound-treated culture to the OD value of a mock-treated culture, expressed in percentage, was used to quantify the cytotoxicity of a compound. […] To quantify the potentiation of the cytotoxicity of topotecan or temozolomide by test compounds, a dimensionless parameter PF50 is used and is defined as the ratio of the IC50 of topotecan or temozolomide alone to the IC50 of topotecan or temozolomide in combination with a test compound. For the compounds of the invention, PF50 values were determined by testing with topotecan.

[1] = 20 nM purified PARP (5 nM for tight-binding inhibitors), 500 μM NAD+, 25° C., several values in one cell = repeat determinations, read-out: Inhibition Constant Ki

purified PARP protein, sequence (P09874 whole entry): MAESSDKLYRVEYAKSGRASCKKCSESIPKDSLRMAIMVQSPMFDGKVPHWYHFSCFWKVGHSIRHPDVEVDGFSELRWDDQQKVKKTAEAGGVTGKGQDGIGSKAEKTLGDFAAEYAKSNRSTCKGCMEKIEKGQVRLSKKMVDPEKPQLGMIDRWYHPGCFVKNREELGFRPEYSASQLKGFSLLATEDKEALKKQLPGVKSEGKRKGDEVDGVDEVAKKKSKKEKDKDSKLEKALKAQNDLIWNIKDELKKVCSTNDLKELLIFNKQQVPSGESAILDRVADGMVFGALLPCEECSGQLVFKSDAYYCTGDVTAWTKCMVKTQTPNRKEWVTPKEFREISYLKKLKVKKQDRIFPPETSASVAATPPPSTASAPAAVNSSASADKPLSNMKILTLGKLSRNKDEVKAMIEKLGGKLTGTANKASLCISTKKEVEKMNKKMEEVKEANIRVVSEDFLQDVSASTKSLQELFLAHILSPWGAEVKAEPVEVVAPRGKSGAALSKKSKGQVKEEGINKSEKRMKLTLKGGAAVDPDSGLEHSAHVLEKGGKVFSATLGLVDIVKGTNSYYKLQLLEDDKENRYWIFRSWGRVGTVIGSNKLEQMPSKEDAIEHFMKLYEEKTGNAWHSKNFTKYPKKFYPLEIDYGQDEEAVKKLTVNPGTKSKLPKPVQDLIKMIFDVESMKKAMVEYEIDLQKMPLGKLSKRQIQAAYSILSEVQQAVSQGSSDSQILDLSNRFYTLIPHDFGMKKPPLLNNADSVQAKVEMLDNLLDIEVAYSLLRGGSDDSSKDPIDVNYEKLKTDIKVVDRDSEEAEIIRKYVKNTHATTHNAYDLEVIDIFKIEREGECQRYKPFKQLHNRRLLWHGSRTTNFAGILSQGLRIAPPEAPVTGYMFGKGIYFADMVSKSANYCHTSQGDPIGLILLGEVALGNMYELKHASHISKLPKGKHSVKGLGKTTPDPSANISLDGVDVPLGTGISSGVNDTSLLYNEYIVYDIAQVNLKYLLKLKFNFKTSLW

| Structure (SMILES) | Ki (purified PARP protein; [1]) | Cytotoxicity Potentiation PF50 (A549 cells) | melting point | Ki (purified PARP protein; Inhibition Constant Ki (nM)) [nM] |
| --- | --- | --- | --- | --- |
| CC1C=CC(C)N1Cc1ccc(-c2nc3cccc4c3n2CCNC4=O)cc1 (racemic) [Example 243, 1-[4-(2,5-Dimethyl-2,5-dihydro-pyrrol-1-ylmethyl)-phenyl]-8,9-dihydro-7H-2,7,9a-triaza-benzo[cd]azulen-6-one] | 8.9 nM | 2.0 | – | – |
| O=C1NCCn2c(-c3ccccc3)nc3cccc1c32 [Example 1, 1-Phenyl-8,9-dihydro-7H-2,7,9a-triaza-benzo[cd]azulen-6-one] | – | 1.5 | – | – |
| O=C1NCCn2c(-c3ccc(F)cc3)nc3cccc1c32 [Example 2, 1-(4-Fluoro-phenyl)-8,9-dihydro-7H-2,7,9a-triaza-benzo[cd]azulen-6-one] | 8 nM and 6 nM | 1.6 | – | – |
| O=C1NCCn2c(-c3cccnc3)nc3cccc1c32 [Example 7, 1-Pyridin-3-yl-8,9-dihydro-7H-2,7,9a-triaza-benzo[cd]azulen-6-one] | 5.1 nM | 1.4 | – | – |
| O=C1NCCn2c(-c3cccc4ccccc34)nc3cccc1c32 [Example 9, 1-Naphthalen-1-yl-8,9-dihydro-7H-2,7,9a-triaza-benzo[cd]azulen-6-one] | – | 1.4 | – | – |
| O=C1NCCn2c(-c3ccc(F)cc3)cc3cccc1c32 [Example 37] | – | 1.8 | – | – |
| O=C1NCCn2c(-c3ccc(Cl)cc3)c(/C=N/O)c3cccc1c32 [Example 39, 6-(4-Chloro-phenyl)-1-oxo-1,2,3,4-tetrahydro-[1,4]diazepino[6,7,1-hi]indole-7-carboxaldehyde Oxime] | – | 1 | – | – |
| O=C1NCCn2cc(/C=N/O)c3cccc1c32 [Example 46, 1-Oxo-1,2,3,4-tetrahydro-[1,4]diazepino[6,7]-hi]indole-7-carbaldehyde Oxime] | – | 1.3 | – | – |
| Cc1c(-c2ccc(F)cc2)n2c3c(cccc13)C(=O)NCC2 [Example 50, 6-(4-Fluoro-phenyl)-7-methyl-3,4-dihydro-2H-[1,4]diazepino[6,7,1-hi]indol-1-one] | – | 1.1 | – | – |
| O=C1NCCn2c(-c3ccc(F)cc3)c(/C=N/O)c3cccc1c32 [Example 90, 6-(4-Fluoro-phenyl)-1-oxo-1,2,3,4-tetrahydro-[1,4]diazepino[6,7,1-hi]indole-7-carbaldehyde oxime] | – | 1.2 | – | – |
| O=C1NCCn2c(-c3ccc(CCOC4CCCCO4)cc3)nc3cccc1c32 (stereo not shown) [Example 125, 1-{4-[2-(Tetrahydro-pyran-2-yloxy)-ethyl]-phenyl}-8,9-dihydro-7H-2,7,9a-triaza-benzo[cd]azulen-6-one] | 11 nM | – | 189 to 190 °C | – |
| O=C1NCCn2c(-c3ccc(CCO)cc3)nc3cccc1c32 [Example 127, 1-[4-(2-Hydroxy-ethyl)-phenyl]-8,9-dihydro-7H-2,7,9a-triaza-benzo[cd]azulen-6-one] | 3.5 nM and 3.6 nM | – | 263 to 265 °C | – |
| Cn1nnc(-c2ccc(-c3nc4cccc5c4n3CCNC5=O)cc2)n1 [Example 133, 1-[4-(2-Methyl-2H-tetrazol-5-yl)-phenyl]-8,9-dihydro-7H-2,7,9a-triaza-benzo[cd]azulen-6-one] | 6.9 nM | – | 280 °C (dec.) | – |
| O=C1NCCn2c(-c3ccc(-c4ccncc4)cc3)nc3cccc1c32 [Example 135, 1-(4-Pyridin-4-yl-phenyl)-8,9-dihydro-7H-2,7,9a-triaza-benzo[cd]azulen-6-one] | 3.8 nM | – | 370 to 372 °C (dec.) | – |
| O=C1NCCn2c(-c3ccc(-c4nn[nH]n4)cc3)nc3cccc1c32 [Example 136, 1-[4-(2H-Tetrazol-5-yl)-phenyl]-8,9-dihydro-7H-2,7,9a-triaza-benzo[cd]azulen-6-one] | 96 nM | – | > 290 °C (dec.) | – |
| CSc1nc2cccc3c2n1CCNC3=O [Example 138, 1-Methylsulfanyl-8,9-dihydro-7H-2,7,9a-triaza-benzo[cd]azulen-6-one] | 11 nM | – | 223 to 225 °C | – |
| C[S+]([O-])c1nc2cccc3c2n1CCNC3=O (stereo not shown) [Example 139, 1-Methanesulfinyl-8,9-dihydro-7H-2,7,9a-triaza-benzo[cd]azulen-6-one] | 12 nM | – | 241 to 242 °C (dec.) | – |

| Structure (SMILES) | Ki (purified PARP protein; [1]) | Cytotoxicity Potentiation PF50 (A549 cells) | melting point | Ki (purified PARP protein; Inhibition Constant Ki (nM)) [nM] |
| --- | --- | --- | --- | --- |
| CS(=O)(=O)c1nc2cccc3c2n1CCNC3=O [Example 140, 1-Methanesulfonyl-8,9-dihydro-7H-2,7,9a-triaza-benzo[cd]azulen-6-one] | 6.8 nM | – | > 190 °C (dec.) | – |
| CN1CCCC(c2ccc(-c3nc4cccc5c4n3CCNC5=O)cc2)C1 (stereo not shown) [Example 144, 1-[4-(Methyl-piperidin-3-yl)-phenyl]-8,9-dihydro-7H-2,7,9a-triaza-benzo[cd]azulen-6-one] | 7.4 nM | – | 240 to 242 °C | – |
| O=C1NCCn2c(NCc3ccccc3)nc3cccc1c32 [Example 145, 1-Benzylamino-8,9-dihydro-7H-2,7,9a-triaza-benzo[cd]azulen-6-one] | 20 nM | – | 186 °C (dec.) | – |
| O=C1NCCn2c(-c3ccc(-c4c[nH]cn4)cc3)nc3cccc1c32 [Example 147, 1-[4-(1H-Imidazol-4-yl)-phenyl]-8,9-dihydro-7H-2,7,9a-triaza-benzo[cd]azulen-6-one] | 4 nM | – | > 198 °C (dec.) | – |
| CC(C)N1CCCCC1c1ccc(-c2nc3cccc4c3n2CCNC4=O)cc1 (stereo not shown) [Example 151] | 6.9 nM | – | > 260 °C (dec.) | – |
| O=C1NCCn2c(-c3ccc(-c4ncc[nH]4)cc3)nc3cccc1c32 [Example 152, 1-[4-(1H-Imidazol-2-yl)-phenyl]-8,9-dihydro-7H-2,7,9a-triaza-benzo[cd]azulen-6-one] | 3.2 nM | – | > 325 °C | – |
| NC(=S)c1c(-c2ccc(F)cc2)n2c3c(cccc13)C(=O)NCC2 [Example 153, 6-(4-Fluoro-phenyl)-1-oxo-1,2,3,4-tetrahydro-[1,4]diazepino[6,7,1-hi]indole-7-carbothioic Acid Amide] | 219 nM | – | 238 to 240 °C | – |
| N/C(=N\O)c1c(-c2ccc(F)cc2)n2c3c(cccc13)C(=O)NCC2 [Example 155, 6-(4-Fluoro-phenyl)-N-hydroxy-1-oxo-1,2,3,4-tetrahydro-[1,4]diazepino[6,7,1-hi]indole-7-carboxmidine] | 87 nM | – | 257 to 259 °C | – |
| CC(O)c1c(-c2ccc(F)cc2)n2c3c(cccc13)C(=O)NCC2 (stereo not shown) [Example 157, 6-(4-Fluoro-phenyl)-7-(1-hydroxy-ethyl)-3,4-dihydro-2H-[1,4]diazepino[6,7,1-hi]indol-1-one] | 540 nM | – | 220 to 222 °C | – |
| O=C1NCCn2c(-c3ccc(F)cc3)c(-c3ccn[nH]3)c3cccc1c32 [Example 160, 6-(4-Fluoro-phenyl)-7-(2H-pyrazol-3-yl)-3,4-dihydro-2H-[1,4]diazepino[6,7,1-hi]indol-1-one] | – | – | 173 to 175 °C | 249 |
| COC(=O)CCCc1cc2cccc3c2n1CCNC3=O [Example 161] | 116 nM | – | 175 to 176 °C | – |
| CC(O)c1cn2c3c(cccc13)C(=O)NCC2 (stereo not shown) [Example 163, 7-(1-Hydroxy-ethyl)-3,4-dihydro-2H-[1,4]diazepino[6,7,1-hi]indol-1-one] | 692 nM | – | 295 to 297 °C | – |
| CC(=O)c1cn2c3c(cccc13)C(=O)NCC2 [Example 164, 7-Acetyl-3,4-dihydro-2H-[1,4]diazepino[6,7,1-hi]indol-1-one] | 606 nM | – | 285 to 287 °C | – |
| O=C1NCCn2cc(C(O)c3ccccc3)c3cccc1c32 (stereo not shown) [Example 166, 7-(1-Hydroxy-1-phenyl-methyl)-3,4-dihydro-2H-[1,4]diazepino[6,7,1-hi]indol-1-one] | – | – | 178 to 180 °C | 380 |
| O=C(c1ccccc1)c1cn2c3c(cccc13)C(=O)NCC2 [Example 167, 7-(1-Benzoyl)-3,4-dihydro-2H-[1,4]diazepino[6,7,1-hi]indol-1-one] | 337 nM | – | 229 to 230 °C | – |
| O=C1NCCn2cc(/C(=N/O)c3ccccc3)c3cccc1c32 [Example 168, 7-(1-Hydroxyimino-1-phenyl-methyl)-3,4-dihydro-2H-[1,4]diazepino[6,7,1-hi]indol-1-one] | – | – | 263 to 265 °C | 38 |
| C[C@H]1Cn2c(-c3ccc(Cl)cc3)nc3cccc(c32)C(=O)N1 [Example 235, (S)-1-(4-Chloro-phenyl)-8-methyl-8,9-dihydro-7H-2,7,9a-triaza-benzo[cd]azulen-6-one] | 5.4 nM | – | 244 to 246 °C | – |
